Results taken from ChEMBL document CHEMBL1138514, “Rhodamine inhibitors of P-glycoprotein: an amide/thioamide "switch" for ATPase activity” (J Med Chem, 2009).
pIC50: −log10 of the molar value.

What was measured:
[1] = (§1) Permeability from apical to basolateral side of MDCK2 cells over expressing MDR1 at 5 uM after 1 hr; conditions: dog, MDCK-MDR1, 1 h, 5 µM
[2] = (§2) Permeability from apical to basolateral side of MDCK2 cells over expressing MDR1 at 5 uM in presence LSN335984 pretreated for 30 mins measured after 1 hr; conditions: dog, MDCK-MDR1, 1 h, 5 µM
[3] = (§3) Permeability from basolateral to apical side of MDCK2 cells over expressing MDR1 at 5 uM after 1 hr; conditions: dog, MDCK-MDR1, 1 h, 5 µM
[4] = (§4) Permeability from basolateral to apical side of MDCK2 cells over expressing MDR1 at 5 uM in presence LSN335984 pretreated for 30 mins measured after 1 hr; conditions: dog, MDCK-MDR1, 1 h, 5 µM
[5] = Permeability from apical to basolateral side of MDCK2 cell monolayer over expressing MDR1 assessed as drug concentration associated with cell at 5 uM after 1 hr of drug washout by methanol; conditions: dog
[6] = Permeability from apical to basolateral side of MDCK2 cell monolayer over expressing MDR1 assessed as drug concentration associated with cell at 5 uM after 1 hr of drug washout by methanol in presence of LSN335984; conditions: dog
[7] = Octanol-water partition coefficient, log P of the compound
[8] = biological target: T1, ATP-dependent translocase ABCB1 (Homo sapiens, UniProt P08183); assay: Inhibition of human MDR1 expressed in MDCK2 cells assessed as enhancement of Calcein-AM uptake treated 30 mins before Calcein-AM challenge measured after 20 mins
MDR3 (ABCB1) = MDR3 (ABCB1) (Mus musculus, UniProt P21447); assay: Induction of mouse cysteine-less MDR3 ATPase activity relative to basal activity
MDR1 (ABCB1) = MDR1 (ABCB1) (Homo sapiens, UniProt P08183); assay: Induction of human histidine10-tagged MDR1 ATPase activity expressed in BHK cells relative to basal activity
[9] = biological target: ATP-dependent translocase ABCB1 (Mus musculus, UniProt P21447); assay: Inhibition of verapamil-stimulated ATPase activity of mouse cysteine-less MDR3
[10] = biological target: T1, ATP-dependent translocase ABCB1; assay: Inhibition of verapamil-stimulated ATPase activity of human histidine10-tagged MDR1 expressed in BHK cells
MDR1 [11] = assay: as §1; conditions: dog, MDCK-MDR1
MDR1 [12] = assay: as §2; conditions: dog
MDR1 [13] = assay: as §3; conditions: dog, MDCK-MDR1
MDR1 [14] = assay: as §4; conditions: dog
MDR1 [15] = assay: (§5) Efflux ratio of permeability from apical to basolateral over basolateral to apical side in MDCK2 cells over expressing MDR1 at 5 uM after 1 hr; conditions: dog, MDCK-MDR1
MDR1 [16] = assay: Efflux ratio of permeability from apical to basolateral over basolateral to apical side in MDCK2 cells over expressing MDR1 at 5 uM after 1 hr in presence LSN335984 pretreated for 30 mins measured after 1 hr; conditions: dog
[17] = Ratio of permeability from apical to basolateral side after 1 hr of drug washout by methanol to apical to basolateral side in MDCK2 cell monolayer over expressing MDR1 at 5 uM after 1 hr of drug washout by methanol in presence LSN335984; conditions: dog, mdck-ii
[18] = as §5; conditions: dog, MDCK-MDR1, 1 h, 5 µM
[19] = human histidine10-tagged MDR1 expressed in BHK cells
[20] = MDCK-MDR1, with LSN335984 (concentration not stated)

T1 sequence (P08183 whole entry): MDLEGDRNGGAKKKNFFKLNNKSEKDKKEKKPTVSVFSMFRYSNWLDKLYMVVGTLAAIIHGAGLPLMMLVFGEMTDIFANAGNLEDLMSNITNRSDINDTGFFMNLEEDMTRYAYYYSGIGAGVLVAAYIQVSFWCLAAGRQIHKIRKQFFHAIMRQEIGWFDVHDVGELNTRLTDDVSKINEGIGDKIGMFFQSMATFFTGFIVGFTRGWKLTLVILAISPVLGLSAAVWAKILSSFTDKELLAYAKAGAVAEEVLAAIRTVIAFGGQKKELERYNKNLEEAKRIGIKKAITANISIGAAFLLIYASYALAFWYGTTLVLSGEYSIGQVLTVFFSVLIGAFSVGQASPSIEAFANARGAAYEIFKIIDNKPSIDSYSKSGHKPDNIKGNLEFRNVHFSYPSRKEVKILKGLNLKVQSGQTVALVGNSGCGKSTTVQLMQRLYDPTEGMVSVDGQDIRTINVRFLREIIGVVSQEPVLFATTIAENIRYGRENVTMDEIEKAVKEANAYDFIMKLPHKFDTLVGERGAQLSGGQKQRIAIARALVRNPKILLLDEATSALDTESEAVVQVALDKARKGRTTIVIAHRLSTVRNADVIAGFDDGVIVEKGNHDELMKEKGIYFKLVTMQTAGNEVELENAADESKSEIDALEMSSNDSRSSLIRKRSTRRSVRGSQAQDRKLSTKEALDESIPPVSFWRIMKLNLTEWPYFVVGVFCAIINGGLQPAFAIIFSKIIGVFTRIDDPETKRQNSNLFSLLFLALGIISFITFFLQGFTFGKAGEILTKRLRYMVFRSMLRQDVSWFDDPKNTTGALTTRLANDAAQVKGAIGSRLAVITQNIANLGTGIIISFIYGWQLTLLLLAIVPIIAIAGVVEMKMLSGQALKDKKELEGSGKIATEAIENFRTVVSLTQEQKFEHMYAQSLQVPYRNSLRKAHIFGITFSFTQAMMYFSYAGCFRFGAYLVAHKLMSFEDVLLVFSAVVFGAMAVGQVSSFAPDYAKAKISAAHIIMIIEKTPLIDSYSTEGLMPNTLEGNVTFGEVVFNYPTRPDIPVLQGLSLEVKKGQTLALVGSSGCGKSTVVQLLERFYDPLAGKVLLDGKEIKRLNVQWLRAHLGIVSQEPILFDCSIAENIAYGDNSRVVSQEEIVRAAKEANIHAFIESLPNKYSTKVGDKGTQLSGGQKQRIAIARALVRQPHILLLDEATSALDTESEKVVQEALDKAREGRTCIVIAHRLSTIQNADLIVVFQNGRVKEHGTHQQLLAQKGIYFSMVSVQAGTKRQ
Chain of MDR1 (ABCB1) (P08183 whole entry): as above
Chain of ATP-dependent translocase ABCB1 (Mus musculus, UniProt P21447) (P21447 whole entry, looked up): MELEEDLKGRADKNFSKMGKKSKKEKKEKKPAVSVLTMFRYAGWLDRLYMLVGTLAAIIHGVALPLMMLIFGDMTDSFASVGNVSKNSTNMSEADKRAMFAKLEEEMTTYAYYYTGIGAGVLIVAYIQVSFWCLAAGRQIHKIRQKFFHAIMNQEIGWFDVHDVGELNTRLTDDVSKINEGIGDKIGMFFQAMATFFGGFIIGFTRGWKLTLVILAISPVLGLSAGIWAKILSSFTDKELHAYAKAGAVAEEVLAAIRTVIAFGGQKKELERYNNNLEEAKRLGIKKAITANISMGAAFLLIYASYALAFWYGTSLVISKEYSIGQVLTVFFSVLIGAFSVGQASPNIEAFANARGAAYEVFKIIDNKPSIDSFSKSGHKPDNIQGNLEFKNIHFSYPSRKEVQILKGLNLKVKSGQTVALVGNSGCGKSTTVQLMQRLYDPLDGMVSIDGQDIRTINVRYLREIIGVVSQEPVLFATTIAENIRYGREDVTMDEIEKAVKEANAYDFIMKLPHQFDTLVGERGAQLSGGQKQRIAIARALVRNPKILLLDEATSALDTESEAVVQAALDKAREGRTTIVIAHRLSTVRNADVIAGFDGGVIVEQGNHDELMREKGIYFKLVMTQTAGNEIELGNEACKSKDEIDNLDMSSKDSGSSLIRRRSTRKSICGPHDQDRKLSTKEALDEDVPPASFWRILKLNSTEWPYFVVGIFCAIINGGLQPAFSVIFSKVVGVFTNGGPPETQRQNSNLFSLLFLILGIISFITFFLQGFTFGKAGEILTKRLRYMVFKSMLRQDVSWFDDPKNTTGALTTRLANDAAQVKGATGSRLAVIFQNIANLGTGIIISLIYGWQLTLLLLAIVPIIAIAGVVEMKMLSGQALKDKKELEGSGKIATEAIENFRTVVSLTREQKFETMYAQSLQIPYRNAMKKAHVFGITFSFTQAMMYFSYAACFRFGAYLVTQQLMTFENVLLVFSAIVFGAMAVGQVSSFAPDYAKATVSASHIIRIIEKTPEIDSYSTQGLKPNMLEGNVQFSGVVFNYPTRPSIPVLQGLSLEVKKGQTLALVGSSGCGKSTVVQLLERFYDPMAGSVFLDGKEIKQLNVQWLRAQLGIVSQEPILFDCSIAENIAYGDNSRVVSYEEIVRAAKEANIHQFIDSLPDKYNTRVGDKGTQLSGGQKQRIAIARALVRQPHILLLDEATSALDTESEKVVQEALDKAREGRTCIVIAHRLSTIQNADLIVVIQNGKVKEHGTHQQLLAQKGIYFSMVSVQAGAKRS
Chain of MDR3 (ABCB1) (P21447 whole entry): as the sequence (P21447 whole entry, looked up) above

C[N+](C)=c1ccc2c(-c3ccc(C(=S)N4CCCCC4)s3)c3cc4c5c(c3sc-2c1)CCCN5CCC4.F[P-](F)(F)(F)(F)F
permeability [1]: 0.08 ×10⁻⁶ cm/s | permeability [2]: 0.08 ×10⁻⁶ cm/s | permeability [3]: 5 ×10⁻⁶ cm/s | permeability [4]: 0.16 ×10⁻⁶ cm/s | Activity ([5]; MDCK-MDR1, 1 h): 23% | Activity ([6]; MDCK-MDR1, 1 h): 30% | logP [7]: 2.7

C[N+](C)=c1ccc2c(-c3ccc(C(=S)N4CCOCC4)s3)c3cc4c5c(c3[se]c-2c1)CCCN5CCC4
pIC50 [8]: 4.85

CN(C)c1ccc2c(-c3ccccc3)c3ccc(=[N+](C)C)cc-3[se]c2c1
fold induction (MDR3 (ABCB1); mouse cysteine-less MDR3): 4 | fold induction (MDR1 (ABCB1); [19]): 7.2 | pIC50 [8]: 4.96

CCN(CC)C(=O)c1ccc(-c2c3ccc(=[N+](C)C)cc-3[se]c3cc(N(C)C)ccc23)s1.F[P-](F)(F)(F)(F)F
fold induction (MDR3 (ABCB1); mouse cysteine-less MDR3): 10.1 | fold induction (MDR1 (ABCB1); [19]): 10.5 | Activity ([5]; mdck-ii, 1 h): 11% | Activity ([6]; mdck-ii, 1 h): 24% | logP [7]: -0.39

C[N+](C)=c1ccc2c(-c3ccc(C(=S)N4CCCCC4)s3)c3cc4c5c(c3[se]c-2c1)CCCN5CCC4
pIC50 [8]: 5.28

CN(C)c1cccc(-c2c3ccc(=[N+](C)C)cc-3[se]c3cc(N(C)C)ccc23)c1
fold induction (MDR1 (ABCB1); [19]): 7.6

C[N+](C)=c1ccc2c(-c3ccccc3)c3cc4c5c(c3[se]c-2c1)CCCN5CCC4.F[P-](F)(F)(F)(F)F
fold induction (MDR3 (ABCB1); mouse cysteine-less MDR3): 2.1 | pIC50 [9]: 6.55 | fold induction (MDR1 (ABCB1); [19]): < 1.5 | pIC50 [10]: 5.64 | Papp A→B at 1 h, 5 µM (MDR1 [11]): 1.6 ×10⁻⁶ cm/s | Papp A→B at 1 h, 5 µM (MDR1 [12]; [20]): 1.3 ×10⁻⁶ cm/s | Papp B→A at 1 h, 5 µM (MDR1 [13]): 25 ×10⁻⁶ cm/s | Papp B→A at 1 h, 5 µM (MDR1 [14]; [20]): 1.2 ×10⁻⁶ cm/s | efflux ratio at 1 h, 5 µM (MDR1 [15]): 15 | efflux ratio at 1 h, 5 µM (MDR1 [16]; [20]): 0.9 | Activity ([5]; mdck-ii, 1 h): 32% | Activity ([6]; mdck-ii, 1 h): 64% | Ratio [17]: 2 | logP [7]: 2.4 | pIC50 [8]: 5.31

CN(C)c1ccc(-c2c3ccc(=[N+](C)C)cc-3[se]c3cc(N(C)C)ccc23)cc1
fold induction (MDR3 (ABCB1)): 2.3 | pIC50 [9]: 4.68 | fold induction (MDR1 (ABCB1); bhk): 6.8

CCOC(=O)c1ccc(-c2c3ccc(=[N+](C)C)cc-3sc3cc(N(C)C)ccc23)s1
fold induction (MDR3 (ABCB1); mouse cysteine-less MDR3): 2.9

COc1cccc(-c2c3ccc(=[N+](C)C)cc-3sc3cc(N(C)C)ccc23)c1.[Br-]
Activity ([6]; mdck-ii, 1 h): 56% | logP [7]: 0.14

C[N+](C)=c1ccc2c(-c3ccccc3)c3cc4c5c(c3[te]c-2c1)CCCN5CCC4
fold induction (MDR1 (ABCB1); [19]): 3

CN(C)c1ccc(-c2c3ccc(=[N+](C)C)cc-3[te]c3cc(N(C)C)ccc23)cc1
fold induction (MDR1 (ABCB1); [19]): 4.5

CN(C)c1ccc(-c2c3ccc(=[N+](C)C)cc-3[se]c3c4c5c(cc23)CCCN5CCC4)cc1
fold induction (MDR1 (ABCB1); [19]): < 1.5 | pIC50 [10]: 5.17

COc1cccc(-c2c3ccc(=[N+](C)C)cc-3[se]c3cc(N(C)C)ccc23)c1
fold induction (MDR3 (ABCB1); mouse cysteine-less MDR3): 6.4 | fold induction (MDR1 (ABCB1); [19]): 2.5

CN(C)c1ccc2c(-c3ccccc3C(=O)O)c3ccc(=[N+](C)C)cc-3sc2c1
fold induction (MDR3 (ABCB1); mouse cysteine-less MDR3): 3.5

COC(=O)c1ccccc1-c1c2ccc(=[N+](C)C)cc-2sc2cc(N(C)C)ccc12
fold induction (MDR3 (ABCB1); mouse cysteine-less MDR3): 6

COc1cccc(-c2c3ccc(=[N+](C)C)cc-3[te]c3cc(N(C)C)ccc23)c1
fold induction (MDR1 (ABCB1); [19]): 5.7

COc1ccc(-c2c3ccc(=[N+](C)C)cc-3sc3cc(N(C)C)ccc23)cc1OC.F[P-](F)(F)(F)(F)F
fold induction (MDR3 (ABCB1); mouse cysteine-less MDR3): 3 | fold induction (MDR1 (ABCB1); [19]): 8.2 | Activity ([5]; mdck-ii, 1 h): 16% | Activity ([6]; mdck-ii, 1 h): 53% | logP [7]: 0.28

CN(C)c1ccc2c(-c3ccsc3C(=O)O)c3ccc(=[N+](C)C)cc-3sc2c1
fold induction (MDR1 (ABCB1); [19]): 4.3

CN(C)c1ccc2c(-c3ccc(C(=O)O)s3)c3ccc(=[N+](C)C)cc-3sc2c1
fold induction (MDR1 (ABCB1); [19]): 2.7

CN(C)c1ccc2c(CCCOc3ccccc3)c3ccc(=[N+](C)C)cc-3sc2c1
fold induction (MDR3 (ABCB1); mouse cysteine-less MDR3): 6 | fold induction (MDR1 (ABCB1); [19]): 6.2

CCN(CC)C(=O)c1ccc(-c2c3ccc(=[N+](C)C)cc-3sc3cc(N(C)C)ccc23)s1
fold induction (MDR3 (ABCB1); mouse cysteine-less MDR3): 10.6

CN(C)c1ccc2c(-c3ccc(N4CCOCC4)cc3)c3ccc(=[N+](C)C)cc-3[se]c2c1
fold induction (MDR3 (ABCB1); mouse cysteine-less MDR3): < 1 | pIC50 [9]: 4.64 | fold induction (MDR1 (ABCB1); [19]): 3.3

CN(C)c1ccc2c(-c3ccc(C(=S)N4CCCCC4)s3)c3ccc(=[N+](C)C)cc-3sc2c1
pIC50 [9]: 4.49 | logP [7]: 1.7

C[N+](C)=c1ccc2c(-c3ccc(C(=S)N4CCCCC4)s3)c3cc4c5c(c3[te]c-2c1)CCCN5CCC4
pIC50 [8]: 4.85

C[N+](C)=c1ccc2c(-c3ccc(C(=S)N4CCOCC4)s3)c3cc4c5c(c3sc-2c1)CCCN5CCC4
pIC50 [8]: 4.70

CN(C)c1ccc2c(-c3ccccc3)c3ccc(=[N+](C)C)cc-3[te]c2c1
fold induction (MDR1 (ABCB1); [19]): 8.4

CN(C)c1ccc2c(-c3ccc(C(=O)O)s3)c3ccc(=[N+](C)C)cc-3[te]c2c1
fold induction (MDR1 (ABCB1); [19]): 1.8

CN(C)c1ccc2c(-c3ccc(N4CCOCC4)cc3)c3ccc(=[N+](C)C)cc-3sc2c1
fold induction (MDR1 (ABCB1); [19]): 4.8

CN(C)c1cccc(-c2c3ccc(=[N+](C)C)cc-3sc3cc(N(C)C)ccc23)c1
fold induction (MDR3 (ABCB1); mouse cysteine-less MDR3): 3.5 | fold induction (MDR1 (ABCB1); [19]): 7.7

CN(C)c1ccc(-c2c3ccc(=[N+](C)C)cc-3sc3cc(N(C)C)ccc23)cc1
fold induction (MDR3 (ABCB1); mouse cysteine-less MDR3): 1 | fold induction (MDR1 (ABCB1); [19]): 9

CN(C)c1ccc2c(-c3ccsc3C(=O)O)c3ccc(=[N+](C)C)cc-3[se]c2c1
fold induction (MDR3 (ABCB1); mouse cysteine-less MDR3): 1.7 | fold induction (MDR1 (ABCB1); [19]): 2.1

CN(C)c1ccc2c(-c3ccc(C(=S)N4CCCCC4)s3)c3ccc(=[N+](C)C)cc-3[te]c2c1.F[P-](F)(F)(F)(F)F
Papp A→B at 1 h, 5 µM (MDR1 [11]): 0.09 ×10⁻⁶ cm/s | Papp A→B at 1 h, 5 µM (MDR1 [12]; MDCK-MDR1): 0.12 ×10⁻⁶ cm/s | Papp B→A at 1 h, 5 µM (MDR1 [13]): 2.2 ×10⁻⁶ cm/s | Papp B→A at 1 h, 5 µM (MDR1 [14]; MDCK-MDR1): 0.2 ×10⁻⁶ cm/s | efflux ratio at 1 h, 5 µM (MDR1 [15]): 24 | efflux ratio at 1 h, 5 µM (MDR1 [16]; MDCK-MDR1): 1.7 | Activity ([5]; MDCK-MDR1, 1 h): 12%

CN(C)c1cccc(-c2c3ccc(=[N+](C)C)cc-3[se]c3c4c5c(cc23)CCCN5CCC4)c1
fold induction (MDR1 (ABCB1); [19]): < 1.5 | pIC50 [10]: 4.63

CCN(CC)C(=O)c1ccccc1-c1c2ccc(=[N+](C)C)cc-2sc2cc(N(C)C)ccc12
fold induction (MDR3 (ABCB1); mouse cysteine-less MDR3): 10.1

CN(C)c1cccc(-c2c3ccc(=[N+](C)C)cc-3[te]c3cc(N(C)C)ccc23)c1
fold induction (MDR1 (ABCB1); [19]): 5.5

CN(C)c1ccc2c(-c3ccc(CCl)cc3)c3ccc(=[N+](C)C)cc-3oc2c1.[Br-] [TETRAMETHYLROSAMINE]
fold induction (MDR3 (ABCB1); mouse cysteine-less MDR3): 3.7 | Papp A→B at 1 h, 5 µM (MDR1 [11]): 0.3 ×10⁻⁶ cm/s | Papp A→B at 1 h, 5 µM (MDR1 [12]; [20]): 1.4 ×10⁻⁶ cm/s | Papp B→A at 1 h, 5 µM (MDR1 [13]): 101 ×10⁻⁶ cm/s | Papp B→A at 1 h, 5 µM (MDR1 [14]; [20]): 2.1 ×10⁻⁶ cm/s | Ratio [18]: 338 | efflux ratio at 1 h, 5 µM (MDR1 [16]; MDCK-MDR1): 1.6 | Activity ([5]; mdck-ii, 1 h): 14.5% | Activity ([6]; mdck-ii, 1 h): 54% | Ratio [17]: 4.3 | logP [7]: 1.1
